Measurements: patent publication EP3017816A2, “DIINDOLYLMETHANE-BASED MEDICINAL AGENT AND USE THEREOF TO TREAT INFLUENZA AND VIRAL RESPIRATORY INFECTIONS” (Kiselev, Vsevolod Ivanovich, priority 2013, dated 2014)
“And” between values parts separate entries of the source, which are not always exact repeats. Identical values can stand only once.

Key:
[1] = system: A/Aichi/2/68 (H3N2) influenza virus; experiment: Virus titration in lung tissue of infected mice (CAM fragments, hemagglutination reaction); format: in vivo, white mice; conditions: 3rd day
[2] = system: A/Aichi/2/68 (H3N2) influenza virus; experiment: Experimental lethal influenza infection in mice: mortality, average life, protection index; format: in vivo, white mice; conditions: for Average life / Protection index, % / total mortality (number of dead/infected): reference preparation, dose not given; for total mortality (number of dead/infected): day 15
[3] = Concentration of diindolylmethane in volunteers' plasma after oral administration; format: in vivo; conditions: same dosage; range of concentrations approximately 300 ng/ml
Method: In all the clinical studies, pharmacokinetics comparison was made between the DIM preparation of the invention on the basis of A-type fish oil with the concentration 1-10% of preparation, the DIM preparation on the basis of Omega 3 and the crystalline DIM in the same dosages. […] The maximum DIM concentration in blood was observed two hours after the administration of preparations and achieved approximately 300 ng/ml.

[4] = system: A/Aichi/2/68 (H3N2) influenza virus; experiment: Surface of chronic postinfluenzal pneumonia foci in lungs of surviving mice; format: in vivo, white mice; conditions: for Surface of chronic pneumonia foci (% of total surface of the lung surface): reference preparation, dose not given, survivors day 15
Method: The animals that survived to the 15th day after infection were autopsied and their lungs were studied macroscopically. Visual evaluation was carried out of the surface of chronic foci of postinfluenzal pneumonia remaining in the lung tissue of mice after the acute stage of the influenza infection within the entire life of the animal. The surface of the lesion foci was expressed in percentage to the entire lung surface.

| SMILES | Infectious titer of the influenza virus (lg EID50) in lungs ([1]; 60 mg/kg orally, virus dosage 1, group average) [lg EID50] | Infectious titer of the influenza virus (lg EID50) in lungs ([1]; 60 mg/kg orally, virus dosage 1, individual animals) | Infectious titer of the influenza virus (lg EID50) in lungs ([1]; 60 mg/kg orally, virus dosage 2, group average) [lg EID50] | Infectious titer of the influenza virus (lg EID50) in lungs ([1]; 60 mg/kg orally, virus dosage 2, individual animals) | survival of infected animals (Fig. 2) ([2]; virus dosage 10 LD50) | detection of DIM in the patients' plasma [3] | Infectious titer of the influenza virus (lg EID50) in lungs ([1]; 50 mg/kg orally, virus dosage 1, group average) [lg EID50] | Infectious titer of the influenza virus (lg EID50) in lungs ([1]; 50 mg/kg orally, virus dosage 1, individual animals) | Infectious titer of the influenza virus (lg EID50) in lungs ([1]; 50 mg/kg orally, virus dosage 2, group average) [lg EID50] | Infectious titer of the influenza virus (lg EID50) in lungs ([1]; 50 mg/kg orally, virus dosage 2, individual animals) | Average life ([2]; virus dosage 1 LD50) [days] | Protection index, % ([2]; virus dosage 1 LD50) [%] | total mortality (number of dead/infected) ([2]; virus dosage 1 LD50) | Average life ([2]; virus dosage 10 LD50) [days] | Protection index, % ([2]; virus dosage 10 LD50) [%] | total mortality (number of dead/infected) ([2]; virus dosage 10 LD50) | protection index ([2]; text summary over both virus dosages) | effect on the surface of chronic pneumonia foci [4] | Surface of chronic pneumonia foci (% of total surface of the lung surface) ([4]; viral dosage 1 LD50) [%] | Surface of chronic pneumonia foci (% of total surface of the lung surface) ([4]; viral dosage 10 LD50) [%] |
| --- | --- | --- | --- | --- | --- | --- | --- | --- | --- | --- | --- | --- | --- | --- | --- | --- | --- | --- | --- | --- |
| c1ccc2c(Cc3c[nH]c4ccccc34)c[nH]c2c1 [crystalline DIM, 3,3-diindolylmethane] | 3.8±0.17 | 4.0 lg EID50 (2×) and 3.5 lg EID50 | 4.5±0.29 | 5.0 lg EID50 and 4.0 lg EID50 and 4.5 lg EID50 | had no practical influence on the survival | did not enable one to discover it in this range of concentrations | – | – | – | – | – | – | – | – | – | – | – | – | – | – |
| CC(N)C12CC3CC(CC(C3)C1)C2 (centres unmarked) [rimantadine] | – | – | – | – | – | – | 2.3±0.17 | 2.0 lg EID50 and 3.0 lg EID50 and 2.5 lg EID50 | 2.7±0.17 | 2.5 lg EID50 (2×) and 3.0 lg EID50 | 14.4 | 80 | 1/10 | 13.9 | 78 | 2/10 | 78-80% | reduced this index for each infecting dosage | 31±11.8 | 27±6.8 |
